This note sets out measurements from the OligoGym collection.

Where “and” joins values, the source holds several entries; their conditions need not be identical. Equal entries are not always repeated. After the bases stand the sugars from the 5' end (letter, count) and the backbone: PS all phosphorothioate, else s phosphorothioate and o phosphodiester by linkage. Methylation of C is not given here. e = 2'-O-(2-methoxyethyl) (MOE); k = constrained ethyl (cEt); d = 2'-deoxy (DNA)

One series has as its target DGAT2. Particulars: ASO.
The next series addresses APOL1. The conditions noted are these: ASO.

As to “CTTTGAAATCCAATGCACCT (sugars e5 d10 e5, PS)”, the target mRNA inhibition came to 65% in the series with DGAT2 (HepG2, 2.5 µM) and 92% with DGAT2 (HepG2, 10 µM).
In the same order, the values of “CACCATTTTCACAAGGAGAA (sugars e5 d10 e5, PS)” are 86% and 82%.
In the case of “ATCCGGACTGAATGTCACCT (sugars e5 d10 e5, PS)”, the target mRNA inhibition is 80% and 72% with DGAT2 (HepG2, 2.5 µM); 84% and 91% with DGAT2 (HepG2, 10 µM).
For “AGGGAGGCCTTGCACTTACC (sugars e5 d10 e5, PS)”, in the series with DGAT2 (HepG2, 0.12 µM), the target mRNA inhibition was determined as 13%.
With “TCATTTCATAGATGAGGAGA (sugars e5 d10 e5, PS)”, the target mRNA inhibition with DGAT2 (HepG2, 0.12 µM) turned out to be 34%.
Take “AGAGCTTCACCAGGGCCTCC (sugars e5 d10 e5, PS)”: the target mRNA inhibition with DGAT2 (HepG2, 0.12 µM) turned out to be 46%.
“CCAGCTGGATGGGAAAGTAG (sugars e5 d10 e5, PS)” yielded a target mRNA inhibition in the series with DGAT2 (HepG2, 0.12 µM) of 24%.
For the sequence “ACCCATCGGCCCCAGGAGCC (sugars e5 d10 e5, PS)”, the target mRNA inhibition with DGAT2 (HepG2, 0.12 µM) was determined as 59%.
In the case of “ACAACTCTCTTGTTGGGAGG (sugars e5 d10 e5, PS)”, the target mRNA inhibition with DGAT2 (HepG2, 2.5 µM) turned out to be 64%; with DGAT2 (HepG2, 10 µM), 84%.
Regarding “GGCATGGAGCTCAGAGACTC (sugars e2 d13 e5, PS)”, in the series with DGAT2 (HepG2, 0.12 µM), the target mRNA inhibition is 77%.
“CCCACTGGAGCACTGAGATG (sugars e3 d14 e3, PS)” came in with a target mRNA inhibition with DGAT2 (HepG2, 0.12 µM) of 75%.
On to “GCAGCAGGTACTCATGTTTG (sugars e5 d10 e5, PS)”, for which the target mRNA inhibition worked out at 54% with DGAT2 (HepG2, 2.5 µM) and 75% with DGAT2 (HepG2, 10 µM).
Take “GCTCAGAGACTCAGCCGCAC (sugars e5 d10 e5, PS)”: the target mRNA inhibition with DGAT2 (HepG2, 0.12 µM) came out at 86%; in the series with DGAT2 (HepG2, 2.5 µM), 41%; with DGAT2 (HepG2, 10 µM) it was 60%; in the series with DGAT2 (HepG2, 20 µM), 47%.
On to “TGGTCAGCAGGTTGTGTGTC (sugars e3 d14 e3, PS)”, for which the target mRNA inhibition with DGAT2 (HepG2, 0.12 µM) turned out to be 57%.
As to “ACCACAGCGATAATCAC (sugars e3 d10 e4, PS)”, the target mRNA inhibition was determined as 50% with DGAT2 (HepG2, 2.5 µM) and 75% with DGAT2 (HepG2, 10 µM).
“TGGTATCCAAAGATATAGTT (sugars e5 d10 e5, PS)” returned a target mRNA inhibition with DGAT2 (HepG2, 0.12 µM) of 42%.
Take “CAGCAGGTTGTGTGTCTTCA (sugars e5 d10 e5, PS)”: the target mRNA inhibition was 66% and 75% in the series with DGAT2 (HepG2, 0.12 µM); 16% and 39% with DGAT2 (HepG2, 2.5 µM); 63% and 79% with DGAT2 (HepG2, 10 µM).
In turn, “CATTCTTTGAAAGCAAATAG (sugars e5 d10 e5, PS)” showed a target mRNA inhibition in the series with DGAT2 (HepG2, 0.12 µM) of 15%.
In the series with DGAT2 (HepG2, 0.12 µM), “AGGACCCACTGGAGCACTGA (sugars e2 d13 e5, PS)” showed a target mRNA inhibition of 75%.
On the same count and under the same terms, under “CAGCCTGGACAAGTCCTGCC (sugars e2 d13 e5, PS)” stands 72%.
For “CAGATCTTCATTACATGATT (sugars e5 d10 e5, PS)”, the target mRNA inhibition in the series with DGAT2 (HepG2, 2.5 µM) came to 71%; in the series with DGAT2 (HepG2, 10 µM), 89%.
As to “AGGCACAGAAAAGTGAGGCT (sugars e5 d10 e5, PS)”, the target mRNA inhibition in the series with DGAT2 (HepG2, 2.5 µM) came out at 75%; in the series with DGAT2 (HepG2, 10 µM), 67%.
In the case of “GACACACAATATCCATGGAC (sugars e5 d10 e5, PS)”, the target mRNA inhibition with DGAT2 (HepG2, 2.5 µM) was 72%; with DGAT2 (HepG2, 10 µM) it was 93%.
In the case of “CAGTGGGCCCCAGGTGGCTC (sugars e5 d10 e5, PS)”, the target mRNA inhibition with DGAT2 (HepG2, 0.12 µM) worked out at 46%.
In the series with DGAT2 (HepG2, 0.12 µM), “GGAACTTCTTCTGGACCCAT (sugars e5 d10 e5, PS)” registered a target mRNA inhibition of 36%.
With “CTCCTGTTTGATGGGTAAAA (sugars e5 d10 e5, PS)”, the target mRNA inhibition with DGAT2 (HepG2, 2.5 µM) turned out to be 90%; with DGAT2 (HepG2, 10 µM) it was 80%.
Sequence “CCCATCTCCCAGACCCCTCG (sugars e5 d10 e5, PS)” came in with a target mRNA inhibition with DGAT2 (HepG2, 0.12 µM) of 12%.
Same read-out and setting: the figure for “GGTCAGCAGGTTGTGTGTCT (sugars e5 d10 e5, PS)” is 45% and 62%.
Turning to “GACAAAGTCTATCAGGATGC (sugars e5 d10 e5, PS)”, the target mRNA inhibition with DGAT2 (HepG2, 2.5 µM) is 88% and 67%; with DGAT2 (HepG2, 10 µM) it was 92% and 91%.
Consider “TTCGGACCCACTGTGACCTC (sugars e3 d14 e3, PS)”, for which the target mRNA inhibition with DGAT2 (HepG2, 0.12 µM) worked out at 64%.
For “GCCCAGCACCAAGGAATGGT (sugars e5 d10 e5, PS)”, the target mRNA inhibition in the series with DGAT2 (HepG2, 2.5 µM) stood at 0%; in the series with DGAT2 (HepG2, 10 µM), 59%.
As for GGCCGTGTCACCCTAA (sugars k4 d9 k3, PS), the target mRNA inhibition with APOL1 (A431, 0.0625 µM) turned out to be 51%; in the series with APOL1 (A431, 0.25 µM), 45%; in the series with APOL1 (A431, 1 µM) it was 52%.
Regarding “GTTCAAAAGCAGCATT (sugars kekddddeekkddddd, PS)”, the target mRNA inhibition with APOL1 (A431, 2 µM) amounted to 89%.
In turn, “ATATCAGATGGGTACT (sugars kkkddddkekekdddd, PS)” yielded a target mRNA inhibition in the series with APOL1 (A431, 2 µM) of 28%.
For the sequence “GAATTATGGAATTGCA (sugars kkdddddkekeddddd, PS)”, the target mRNA inhibition turned out to be 17% with APOL1 (A431, 0.0156 µM); 38% with APOL1 (A431, 0.0625 µM); 75% with APOL1 (A431, 0.25 µM); 86% with APOL1 (A431, 1 µM); 92% with APOL1 (A431, 2 µM).
Regarding “AAGTATTGCCAGCTAA (sugars kkkddddkekeddddd, PS)”, the target mRNA inhibition with APOL1 (A431, 2 µM) was 63%.
Still for that read-out and setting: the figure for “AGCTTTAAACTCAGGT (sugars kekddddeekkddddd, PS)” is 82%.
As to ATGTCTCAAACTCCAC (sugars k4 d9 k3, PS), the target mRNA inhibition was 29% in the series with APOL1 (A431, 0.0625 µM); 63% in the series with APOL1 (A431, 0.25 µM); 83% with APOL1 (A431, 1 µM).
